Data on 23 molecules can be found in patent EP3154958B1, “PHOSPHATIDYLINOSITOL 3-KINASE INHIBITORS” (Gilead Sciences, Inc., priority 2014, dated 2015).

SMILES strings stand for the structures.

Assay type in all cases: biochemical
The target in one experiment is T1, PI3Kδ (Homo sapiens, UniProt O00329).
T1 construct: made in house
Description: TR-FRET enzymatic activity assay, PI3Kδ. The following applies: recombinant heterodimeric PI3Kδ 25-50 pM, 2× Km ATP, 30 minutes at 25°C. As to the method: (§1) The compounds of formula (I) were characterized for their enzymatic activity against the PI3K isoforms. The activities were measured using a time-resolved fluorescence resonance energy transfer (TR-FRET) assay.
A general note: In TR-FRET formats the signal depends on donor and acceptor labels being close together.

In a further experiment the target is T2, PI3Kβ (Homo sapiens, UniProt P42338).
T2 construct: made in house
T2 sequence (P42338 whole entry): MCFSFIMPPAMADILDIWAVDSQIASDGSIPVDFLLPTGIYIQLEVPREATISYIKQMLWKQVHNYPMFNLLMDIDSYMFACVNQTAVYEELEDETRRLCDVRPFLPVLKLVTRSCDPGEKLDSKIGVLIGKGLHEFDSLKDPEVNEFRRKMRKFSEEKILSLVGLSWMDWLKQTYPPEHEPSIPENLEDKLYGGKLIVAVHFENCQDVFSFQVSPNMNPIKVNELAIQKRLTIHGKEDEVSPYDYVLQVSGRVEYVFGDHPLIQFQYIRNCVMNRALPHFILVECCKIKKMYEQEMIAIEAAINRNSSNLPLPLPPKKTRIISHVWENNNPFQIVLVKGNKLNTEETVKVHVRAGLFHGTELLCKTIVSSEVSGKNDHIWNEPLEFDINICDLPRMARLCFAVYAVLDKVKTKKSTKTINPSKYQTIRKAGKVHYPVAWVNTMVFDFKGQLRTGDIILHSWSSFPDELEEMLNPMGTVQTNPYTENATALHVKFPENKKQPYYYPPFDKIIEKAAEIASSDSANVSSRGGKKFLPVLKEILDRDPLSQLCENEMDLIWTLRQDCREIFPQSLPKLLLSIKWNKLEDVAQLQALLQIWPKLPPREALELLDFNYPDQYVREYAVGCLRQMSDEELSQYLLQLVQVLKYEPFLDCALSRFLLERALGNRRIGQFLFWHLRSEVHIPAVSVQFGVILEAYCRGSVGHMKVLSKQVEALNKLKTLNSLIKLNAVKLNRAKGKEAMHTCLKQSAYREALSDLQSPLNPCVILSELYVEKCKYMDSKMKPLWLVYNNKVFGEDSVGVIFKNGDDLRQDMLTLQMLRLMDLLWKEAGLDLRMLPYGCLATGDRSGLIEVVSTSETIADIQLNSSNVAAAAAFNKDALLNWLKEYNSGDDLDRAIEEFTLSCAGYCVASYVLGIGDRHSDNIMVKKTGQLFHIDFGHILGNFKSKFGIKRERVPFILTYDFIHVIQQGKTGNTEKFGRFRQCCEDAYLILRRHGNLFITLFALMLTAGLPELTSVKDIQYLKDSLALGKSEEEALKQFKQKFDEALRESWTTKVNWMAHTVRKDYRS
T2 sequence (P27986 whole entry partner): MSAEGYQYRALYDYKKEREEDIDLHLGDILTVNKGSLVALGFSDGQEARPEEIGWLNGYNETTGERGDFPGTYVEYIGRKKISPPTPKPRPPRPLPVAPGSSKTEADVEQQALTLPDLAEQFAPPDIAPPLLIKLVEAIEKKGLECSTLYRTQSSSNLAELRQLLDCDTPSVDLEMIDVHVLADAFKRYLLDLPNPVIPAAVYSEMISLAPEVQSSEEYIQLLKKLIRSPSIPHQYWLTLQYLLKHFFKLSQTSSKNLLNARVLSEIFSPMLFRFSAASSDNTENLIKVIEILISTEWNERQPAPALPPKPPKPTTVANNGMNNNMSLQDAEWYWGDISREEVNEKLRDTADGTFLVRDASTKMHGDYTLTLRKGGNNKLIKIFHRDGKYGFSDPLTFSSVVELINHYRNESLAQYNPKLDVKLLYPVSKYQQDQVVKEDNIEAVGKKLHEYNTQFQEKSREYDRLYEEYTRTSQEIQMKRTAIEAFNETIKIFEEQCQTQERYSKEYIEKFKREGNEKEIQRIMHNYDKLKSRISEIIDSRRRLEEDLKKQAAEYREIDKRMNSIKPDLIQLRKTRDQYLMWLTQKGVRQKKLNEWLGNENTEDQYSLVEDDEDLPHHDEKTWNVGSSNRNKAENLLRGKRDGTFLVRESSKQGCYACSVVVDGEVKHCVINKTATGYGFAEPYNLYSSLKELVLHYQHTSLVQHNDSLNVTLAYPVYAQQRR
In words: TR-FRET enzymatic activity assay, PI3Kβ. The conditions noted are these: recombinant heterodimeric PI3Kβ 25-50 pM, 2× Km ATP, 30 minutes at 25°C. The protocol:
as §1

Another experiment concerns the target T3, PI3Kγ (Homo sapiens, UniProt P48736).
T3 construct: made in house
In words: TR-FRET enzymatic activity assay, PI3Kγ. The following applies: recombinant heterodimeric PI3Kγ 2 nM, 2× Km ATP, 30 minutes at 25°C. As to the method:
as §1

T1 sequence (O00329 whole entry): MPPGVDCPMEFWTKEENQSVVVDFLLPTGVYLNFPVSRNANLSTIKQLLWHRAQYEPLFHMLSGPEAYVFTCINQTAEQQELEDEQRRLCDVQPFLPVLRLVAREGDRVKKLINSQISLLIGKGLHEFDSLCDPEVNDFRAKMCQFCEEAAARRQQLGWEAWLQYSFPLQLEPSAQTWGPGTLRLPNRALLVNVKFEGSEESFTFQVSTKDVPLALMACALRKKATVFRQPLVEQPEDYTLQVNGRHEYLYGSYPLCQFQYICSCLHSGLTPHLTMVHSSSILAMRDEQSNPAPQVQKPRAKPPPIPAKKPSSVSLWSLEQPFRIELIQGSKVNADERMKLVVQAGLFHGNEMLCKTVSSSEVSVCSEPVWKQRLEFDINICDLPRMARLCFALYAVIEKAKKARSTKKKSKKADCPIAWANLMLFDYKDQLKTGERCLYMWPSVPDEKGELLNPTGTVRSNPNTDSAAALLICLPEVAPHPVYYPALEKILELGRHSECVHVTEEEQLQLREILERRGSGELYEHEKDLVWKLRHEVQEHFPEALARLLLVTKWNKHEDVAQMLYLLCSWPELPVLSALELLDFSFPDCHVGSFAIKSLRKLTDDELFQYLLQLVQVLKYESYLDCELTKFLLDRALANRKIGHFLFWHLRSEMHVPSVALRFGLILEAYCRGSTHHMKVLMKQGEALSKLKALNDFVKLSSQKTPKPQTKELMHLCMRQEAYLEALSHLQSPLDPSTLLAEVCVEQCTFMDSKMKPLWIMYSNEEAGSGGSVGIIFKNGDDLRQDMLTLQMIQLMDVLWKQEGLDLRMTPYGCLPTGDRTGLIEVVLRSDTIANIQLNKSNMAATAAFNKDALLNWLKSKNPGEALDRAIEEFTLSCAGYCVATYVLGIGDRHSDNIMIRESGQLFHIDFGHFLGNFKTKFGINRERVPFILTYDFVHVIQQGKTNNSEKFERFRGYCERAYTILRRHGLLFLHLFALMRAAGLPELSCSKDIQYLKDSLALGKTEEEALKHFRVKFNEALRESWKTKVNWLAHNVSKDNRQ
T1 sequence (P27986 whole entry partner): as the sequence (P27986 whole entry partner) above
T3 sequence (P48736 whole entry): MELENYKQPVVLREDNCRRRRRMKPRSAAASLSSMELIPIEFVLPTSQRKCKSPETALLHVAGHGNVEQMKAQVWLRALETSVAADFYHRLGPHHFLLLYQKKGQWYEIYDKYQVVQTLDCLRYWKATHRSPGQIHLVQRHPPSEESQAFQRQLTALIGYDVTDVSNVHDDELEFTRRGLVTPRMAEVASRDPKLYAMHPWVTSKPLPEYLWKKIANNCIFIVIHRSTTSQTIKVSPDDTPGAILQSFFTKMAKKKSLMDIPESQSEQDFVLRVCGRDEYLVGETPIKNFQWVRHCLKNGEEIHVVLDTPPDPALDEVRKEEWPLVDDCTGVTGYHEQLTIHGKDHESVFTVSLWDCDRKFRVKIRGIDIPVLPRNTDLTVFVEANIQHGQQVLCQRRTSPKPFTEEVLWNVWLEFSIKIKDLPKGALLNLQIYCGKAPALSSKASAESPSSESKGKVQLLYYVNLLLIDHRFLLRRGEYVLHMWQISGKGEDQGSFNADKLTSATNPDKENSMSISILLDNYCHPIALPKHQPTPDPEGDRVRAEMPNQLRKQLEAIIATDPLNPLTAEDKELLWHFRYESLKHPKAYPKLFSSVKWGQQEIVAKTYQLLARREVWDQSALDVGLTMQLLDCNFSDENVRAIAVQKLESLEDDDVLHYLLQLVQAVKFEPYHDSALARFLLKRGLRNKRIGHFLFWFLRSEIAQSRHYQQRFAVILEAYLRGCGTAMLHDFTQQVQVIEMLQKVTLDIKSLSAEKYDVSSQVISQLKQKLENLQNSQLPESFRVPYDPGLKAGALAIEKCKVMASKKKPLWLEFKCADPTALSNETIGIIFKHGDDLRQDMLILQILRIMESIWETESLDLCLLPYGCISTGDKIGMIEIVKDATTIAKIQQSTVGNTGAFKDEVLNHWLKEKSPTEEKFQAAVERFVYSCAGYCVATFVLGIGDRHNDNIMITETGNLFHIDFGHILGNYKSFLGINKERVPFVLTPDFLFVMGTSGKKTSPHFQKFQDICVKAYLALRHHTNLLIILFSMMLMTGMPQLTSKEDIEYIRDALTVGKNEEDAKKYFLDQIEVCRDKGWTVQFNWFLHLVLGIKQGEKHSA
T3 sequence (Q8WYR1 whole entry partner): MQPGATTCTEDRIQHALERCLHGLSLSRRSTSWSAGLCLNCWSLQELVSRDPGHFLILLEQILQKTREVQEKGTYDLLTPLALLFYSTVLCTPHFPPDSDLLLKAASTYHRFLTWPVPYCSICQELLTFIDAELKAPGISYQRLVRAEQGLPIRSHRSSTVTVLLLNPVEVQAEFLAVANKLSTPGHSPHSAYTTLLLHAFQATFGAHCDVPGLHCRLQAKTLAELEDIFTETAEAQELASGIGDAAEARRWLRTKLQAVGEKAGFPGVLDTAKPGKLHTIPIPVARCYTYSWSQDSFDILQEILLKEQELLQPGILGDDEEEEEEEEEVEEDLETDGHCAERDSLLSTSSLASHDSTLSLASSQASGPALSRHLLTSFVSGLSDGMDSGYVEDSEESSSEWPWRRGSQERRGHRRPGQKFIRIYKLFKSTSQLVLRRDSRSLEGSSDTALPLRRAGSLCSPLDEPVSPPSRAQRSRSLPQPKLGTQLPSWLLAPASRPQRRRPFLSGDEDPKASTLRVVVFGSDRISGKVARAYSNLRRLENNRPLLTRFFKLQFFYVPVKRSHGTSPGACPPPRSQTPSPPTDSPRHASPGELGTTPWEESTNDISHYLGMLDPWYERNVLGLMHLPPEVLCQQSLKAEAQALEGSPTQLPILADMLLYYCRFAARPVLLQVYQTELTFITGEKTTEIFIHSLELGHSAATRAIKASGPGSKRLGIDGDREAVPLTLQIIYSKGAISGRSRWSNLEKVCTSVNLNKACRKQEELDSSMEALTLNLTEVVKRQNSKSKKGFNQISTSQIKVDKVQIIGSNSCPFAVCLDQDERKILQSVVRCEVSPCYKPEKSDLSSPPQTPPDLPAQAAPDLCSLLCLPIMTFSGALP

As for `Cc1nc(N)nc(N[C@@H](C)c2nc3cccc(Cl)c3c(=O)n2N2CCN(CC(F)F)CC2)c1C#N` [Compound 114, (S)-2-amino-4-((1-(5-chloro-3-(4-(2,2-difluoroethyl)piperazin-1-yl)-4-oxo-3,4-dihydroquinazolin-2-yl)ethyl)amino)-6-methylpyrimidine-5-carbonitrile], the IC50 – broadly, the concentration that inhibits the measured activity by half – amounted to 26 nM on PI3Kδ, 300 nM at PI3Kβ and 560 nM on PI3Kγ.
The corresponding values for `C[C@H](Nc1ncnc(N)c1C#N)c1nc2cccc(Cl)c2c(=O)n1C1CCN(CC(F)(F)F)CC1` [Compound 103, (S)-4-amino-6-((1-(5-chloro-4-oxo-3-(1-(2,2,2-trifluoroethyl)piperidin-4-yl)-3,4-dihydroquinazolin-2-yl)ethyl)amino)pyrimidine-5-carbonitrile] are 10 nM, 2200 nM and over 10000 nM.
For `C[C@H](Nc1ncnn2ccnc12)c1nc2cccc(Cl)c2c(=O)n1N1CCNCC1` [Compound 65, (S)-5-chloro-2-(1-(imidazo[2,1-f][1,2,4]triazin-4-ylamino)ethyl)-3-(piperazin-1-yl)quinazolin-4(3H)-one] the same measures were 8 nM, 42 nM and over 10000 nM.
The corresponding values for `C[C@H](Nc1ncnc(N)c1C#N)c1nc2cccc(Cl)c2c(=O)n1N1CCCNCC1` [Compound 67, (S)-4-amino-6-((1-(5-chloro-3-(1,4-diazepan-1-yl)-4-oxo-3,4-dihydroquinazolin-2-yl)ethyl)amino)pyrimidine-5-carbonitrile] are 2 nM, 22 nM and over 10000 nM.
Take `C[C@H](Nc1nc(N)nc(N)c1Cl)c1nc2cccc(Cl)c2c(=O)n1C1CCN(CC(F)(F)F)CC1` [Compound 104, (S)-5-chloro-2-(1-((2,6-diamino-5-chloropyrimidin-4-yl)amino)ethyl)-3-(1-(2,2,2-trifluoroethyl)piperidin-4-yl)quinazolin-4(3H)-one]: the IC50 on PI3Kδ was 260 nM; at PI3Kβ, 10000 nM; on PI3Kγ, over 10000 nM.
For `C[C@H](Nc1nc(N)nc(N)c1C#N)c1nc2cccc(Cl)c2c(=O)n1N1CCN(CC(F)(F)F)CC1` [Compound 107, (S)-2,4-diamino-6-((1-(5-chloro-4-oxo-3-(4-(2,2,2-trifluoroethyl)piperazin-1-yl)-3,4-dihydroquinazolin-2-yl)ethyl)amino)pyrimidine-5-carbonitrile], the IC50 is 16 nM at PI3Kδ, 520 nM on PI3Kβ and 630 nM at PI3Kγ.
Regarding `C[C@H](Nc1nc(N)nc(N)c1C#N)c1nc2c(F)ccc(Cl)c2c(=O)n1C1[C@H]2CNC[C@@H]12` (stereo in doubt) [Compound 17, 4-(((1S)-1-(3-((1R,5S)-3-azabicyclo[3.1.0]hexan-6-yl)-5-chloro-8-fluoro-4-oxo-3,4-dihydroquinazolin-2-yl)ethyl)amino)-2,6-diaminopyrimidine-5-carbonitrile], the figures for the concentration for half-maximal inhibition (IC50) on PI3Kδ, at PI3Kβ and at PI3Kγ were 4 nM, 3 nM and 2800 nM, respectively.
For `CC[C@H](Nc1nc(N)nc(N)c1C#N)c1nc2c(F)ccc(Cl)c2c(=O)n1N1CCN(Cc2ccccc2)CC1` [Compound 95, (S)-2,4-diamino-6-((1-(3-(4-benzylpiperazin-1-yl)-5-chloro-8-fluoro-4-oxo-3,4-dihydroquinazolin-2-yl)propyl)amino)pyrimidine-5-carbonitrile] the same measures were 38 nM, 96 nM and 2000 nM.
For `O=c1c2c(Cl)cccc2nc([C@@H](Nc2ncnn3ccnc23)C2CC2)n1N1CCNCC1` [Compound 43, (S)-5-chloro-2-(cyclopropyl(imidazo[2,1-f][1,2,4]triazin-4-ylamino)methyl)-3-(piperazin-1-yl)quinazolin-4(3H)-one] the same measures were 4 nM, 30 nM and over 10000 nM.
The corresponding values for `C[C@H](Nc1nc(N)nc(N)c1Cl)c1nc2c(F)ccc(Cl)c2c(=O)n1N1CCN(Cc2ccccc2)CC1` [Compound 117, (S)-3-(4-benzylpiperazin-1-yl)-5-chloro-2-(1-((2,6-diamino-5-chloropyrimidin-4-yl)amino)ethyl)-8-fluoroquinazolin-4(3H)-one] are 220 nM, 570 nM and over 10000 nM.
With `Nc1nc(N)c(Cl)c(N[C@H](c2nc3cccc(Cl)c3c(=O)n2N2CCOCC2)C2CC2)n1` [Compound 122, (S)-5-chloro-2-(cyclopropyl((2,6-diamino-5-chloropyrimidin-4-yl)amino)methyl)-3-morpholinoquinazolin-4(3H)-one], the IC50 was found to be 19 nM at PI3Kδ, 1800 nM on PI3Kβ and 2200 nM on PI3Kγ.
For `CC[C@H](Nc1nc(N)nc(N)c1C#N)c1nc2cccc(Cl)c2c(=O)n1N1CCN(Cc2ccccc2)CC1` [Compound 94, (S)-2,4-diamino-6-((1-(3-(4-benzylpiperazin-1-yl)-5-chloro-4-oxo-3,4-dihydroquinazolin-2-yl)propyl)amino)pyrimidine-5-carbonitrile] the same measures were 32 nM, 56 nM and 2900 nM.
For `C[C@H](Nc1nc(N)nc(N)c1C#N)c1nc2cccc(Cl)c2c(=O)n1[C@@H]1CCCNCC1` [Compound 9, 2,4-diamino-6-(((S)-1-(3-((R)-azepan-4-yl)-5-chloro-4-oxo-3,4-dihydroquinazolin-2-yl)ethyl)amino)pyrimidine-5-carbonitrile] the same measures were 2 nM, 9 nM and over 10000 nM.
For `N#Cc1c(N)nc(N)nc1N[C@H](c1nc2cccc(Cl)c2c(=O)n1N1CCOCC1)C1CC1` [Compound 121, (S)-2,4-diamino-6-(((5-chloro-3-morpholino-4-oxo-3,4-dihydroquinazolin-2-yl)(cyclopropyl)methyl)amino)pyrimidine-5-carbonitrile] the same measures were 2 nM, 134 nM and 190 nM.
Turning to `C[C@H](NC(=O)c1c(N)nn2cccnc12)c1nc2cccc(Cl)c2c(=O)n1N1CCNCC1` [Compound 36, (S)-2-amino-N-(1-(5-chloro-4-oxo-3-(piperazin-1-yl)-3,4-dihydroquinazolin-2-yl)ethyl)pyrazolo[1,5-a]pyrimidine-3-carboxamide], the IC50 worked out at 56 nM at PI3Kδ, 6 nM at PI3Kβ and 5700 nM at PI3Kγ.
For `C[C@H](Nc1nc(N)nc(N)c1C#N)c1nc2cccc(Cl)c2c(=O)n1C1CCN(CC(F)(F)F)CC1` [Compound 100, (S)-2,4-diamino-6-((1-(5-chloro-4-oxo-3-(1-(2,2,2-trifluoroethyl)piperidin-4-yl)-3,4-dihydroquinazolin-2-yl)ethyl)amino)pyrimidine-5-carbonitrile] the same measures were 15 nM, 970 nM and 1300 nM.
The corresponding values for `C[C@H](Nc1nc(N)nc(N)c1Cl)c1nc2cccc(Cl)c2c(=O)n1[C@@H]1CCCNCC1` [Compound 13, 3-((R)-azepan-4-yl)-5-chloro-2-((S)-1-((2,6-diamino-5-chloropyrimidin-4-yl)amino)ethyl)quinazolin-4(3H)-one] are 33 nM, 180 nM and over 10000 nM.
Consider `C[C@H](Nc1ncnc(N)c1C#N)c1nc2cccc(Cl)c2c(=O)n1N1CCC(N)CC1` [Compound 131, (S)-4-amino-6-((1-(3-(4-aminopiperidin-1-yl)-5-chloro-4-oxo-3,4-dihydroquinazolin-2-yl)ethyl)amino)pyrimidine-5-carbonitrile], for which the IC50 was 6 nM at PI3Kδ, 450 nM at PI3Kβ and over 10000 nM at PI3Kγ.
For `CN1CCN(n2c([C@@H](Nc3nc(N)nc(N)c3C#N)C3CC3)nc3cccc(Cl)c3c2=O)CC1` [Compound 1, (S)-2,4-diamino-6-(((5-chloro-3-(4-methylpiperazin-1-yl)-4-oxo-3,4-dihydroquinazolin-2-yl)(cyclopropyl)methyl)amino)pyrimidine-5-carbonitrile] the same measures were 21 nM, 30 nM and 1740 nM.
As to `C[C@H](Nc1nc(N)nc(N)c1Cl)c1nc2cccc(Cl)c2c(=O)n1C1CCNCC1` [Compound 25, (S)-5-chloro-2-(1-((2,6-diamino-5-chloropyrimidin-4-yl)amino)ethyl)-3-(piperidin-4-yl)quinazolin-4(3H)-one], the IC50 at PI3Kδ is 25 nM; at PI3Kβ, 100 nM; on PI3Kγ it was over 10000 nM.
On to `C[C@H](Nc1ncnc2scc(Cl)c12)c1nc2cccc(Cl)c2c(=O)n1N1CCNCC1` [Compound 35, (S)-5-chloro-2-(1-((5-chlorothieno[2,3-d]pyrimidin-4-yl)amino)ethyl)-3-(piperazin-1-yl)quinazolin-4(3H)-one], for which the results for the IC50 at PI3Kδ, at PI3Kβ and at PI3Kγ were 93 nM, 570 nM and over 10000 nM, respectively.
With `C[C@H](Nc1nc(N)nc(N)c1C#N)c1nc2cccc(Cl)c2c(=O)n1C1CCN(Cc2ccccc2)CC1` [Compound 101, (S)-2,4-diamino-6-((1-(3-(1-benzylpiperidin-4-yl)-5-chloro-4-oxo-3,4-dihydroquinazolin-2-yl)ethyl)amino)pyrimidine-5-carbonitrile], the IC50 was 21 nM on PI3Kδ, 44 nM on PI3Kβ and 4200 nM on PI3Kγ.
Turning to `Cc1cccc2nc([C@H](C)Nc3ncnc(N)c3C#N)n(C3CCNCC3)c(=O)c12` [Compound 60, (S)-4-amino-6-((1-(5-methyl-4-oxo-3-(piperidin-4-yl)-3,4-dihydroquinazolin-2-yl)ethyl)amino)pyrimidine-5-carbonitrile], the IC50 is 5 nM on PI3Kδ, 130 nM on PI3Kβ and over 10000 nM on PI3Kγ.
